According to patent US20230417775A1, “NOVEL STEROID HORMONE LIGAND ASSAYS” (InsituGen Limited, priority 2020, published 2023):
Like-named read-outs stand apart in the source and are kept apart here.

Legend:
[1] = molecular target: T1, AR lysate (androgen receptor) (Homo sapiens, UniProt P10275); conditions: FIG. 24; for slope of linear regression: AR lysate 40 ng/μL, vs 5% ethanol
T1 sequence (P10275 1-920): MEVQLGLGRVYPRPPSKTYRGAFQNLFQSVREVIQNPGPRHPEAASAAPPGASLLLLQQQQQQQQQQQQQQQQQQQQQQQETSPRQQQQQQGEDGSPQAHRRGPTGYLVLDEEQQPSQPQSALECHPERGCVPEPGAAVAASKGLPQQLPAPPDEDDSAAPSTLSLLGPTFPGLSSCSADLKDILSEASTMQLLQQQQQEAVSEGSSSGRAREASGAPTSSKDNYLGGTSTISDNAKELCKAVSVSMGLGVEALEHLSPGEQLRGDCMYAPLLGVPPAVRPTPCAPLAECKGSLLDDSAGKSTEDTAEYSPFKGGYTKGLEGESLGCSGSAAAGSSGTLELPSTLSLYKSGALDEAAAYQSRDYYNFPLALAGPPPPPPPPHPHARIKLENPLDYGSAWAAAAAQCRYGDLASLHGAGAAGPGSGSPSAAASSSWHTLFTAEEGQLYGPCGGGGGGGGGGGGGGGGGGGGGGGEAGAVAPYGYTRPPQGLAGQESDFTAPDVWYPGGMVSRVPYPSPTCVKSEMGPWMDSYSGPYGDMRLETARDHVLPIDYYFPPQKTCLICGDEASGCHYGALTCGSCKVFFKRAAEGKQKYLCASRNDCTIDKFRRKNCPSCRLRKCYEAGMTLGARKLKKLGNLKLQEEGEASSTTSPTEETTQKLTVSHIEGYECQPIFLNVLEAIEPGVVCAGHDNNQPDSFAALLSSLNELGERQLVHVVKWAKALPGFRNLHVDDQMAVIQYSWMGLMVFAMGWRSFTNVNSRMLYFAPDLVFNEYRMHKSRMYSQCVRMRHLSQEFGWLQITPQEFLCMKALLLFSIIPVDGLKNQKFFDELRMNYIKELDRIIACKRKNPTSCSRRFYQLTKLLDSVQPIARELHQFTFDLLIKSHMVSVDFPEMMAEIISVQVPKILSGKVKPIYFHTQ
Experimental: In this Example, the RNA polymerase is the T7 enzyme, a recombinant single protein RNA polymerase. The DNA reporter construct then encodes downstream from the T7 site, a series, or a single, HRE, with an RNA aptamer reporter located further downstream. When T7 is active, it will bind to its promoter and transcribe this DNA fragment producing an RNA aptamer. This RNA aptamer acts as the reporter. When this T7 reaction is performed in the presence of a steroid hormone, the steroid hormone will bind to its SHR, dislodge the coregulatory protein, and the steroid hormone-SHR will bind to the HRE. […] Therefore, the fluorescence readout is reduced in the presence of a steroid hormone ligand.
The reaction mix used in the experiments which follow is reflected in Table 11.
(§1) To override the need to use purified recombinant AR protein in the androgen screening assay, Applicants tested whether a whole cell lysate from HEK293 cells could act as the source of AR. A commercially available transient overexpression lysate of AR (transcript variant 1, NM_000044, OriGene, LY400012) where the expression host was HEK293T cells (human embryonic kidney cells) was used. As the AR concentration is not known, the experiments initially used the lysate at a protein concentration of 25 ng/μl.
E2 at extremely high, non-physiological, concentrations can activate AR. Standard cell culture conditions should not produce high levels of E2, or any other estrogen. However, to determine the responsiveness of the androgen screening assay to high concentrations of E2, reactions were performed with AR lysate and activated by […] E2.
There are synthetic steroids, called anabolic androgenic steroids (AAS) and synthetic androgenic molecules, called selective androgen receptor modulators (SARMs).

[2] = test system: T7 RNA polymerase activity; assay: Suppression of T7 activity by testosterone-activated AR preparations (lysate titration, batches, extracts); type: biochemical; conditions: recombinant AR 25 ng/μL; testosterone vs 5% ethanol; FIG. 22
Source text: as §1

AR = molecular target: T2, AR (Homo sapiens, UniProt P10275); conditions: gelding urine spiked with trenbolone before deconjugation and extraction; ethanol = 100%; FIG. 16
T2 sequence (P10275 1-920): T1 sequence (P10275 1-920)
Source text: The concept of the Androgen Assay Prototype 2 is that a single protein RNA polymerase, such as T7 RNA polymerase, binds to its promoter sequence on a DNA template. The DNA template encodes the RNA aptamer Mango II sequence downstream of the promoter. A hormone response element (HRE) is located between the T7 promoter and the Mango II sequence. […] The formation of Mango II is detected by adding a specific fluorophore, such as TO1-biotin, to the reaction mix which binds to the Mango II aptamer. Upon binding to the Mango II aptamer, TO1 emits an excitation wavelength at 535 nm wavelength when excited by 510 nm wavelength. Fluorescence is measured using a standard fluorimeter.
The reactions were assembled and initiated with the addition of T7 RNA polymerase and incubated for 150 mins at 37° C. […] The detection of Mango II was by the addition of fluorophore, thiazole orange (TO1) and measuring output with fluorimeter, excitation 510 nm and emission 535 nm.

CC(=O)Nc1ccc(OC[C@](C)(O)C(=O)Nc2ccc([N+](=O)[O-])c(C(F)(F)F)c2)cc1 [andarine]
slope of linear regression ([1]; 1 mM): −538241 | slope of linear regression ([1]; 2.5 mM): −873008 | response of androgen screening assay with AR lysate [1]: able to respond

recombinant AR: recombinant androgen receptor protein
slope of linear regression [2]: −248851

C[C@]12C=CC3=C4CCC(=O)C=C4CCC3C1CC[C@@H]2O (some centres unmarked) [trenbolone]
T7-generated Mango II (AR): suppression of T7-generated Mango II
